Each compound was assayed against T1, phosphatase ABI1 via the co-regulator RCAR11/PYR1 (Arabidopsis thaliana, UniProt O49686+P49597) (assay: In vitro inhibition of the phosphatase ABI1 via the co-regulator RCAR11/PYR1, MUP dephosphorylation). Details: in a solution of DMSO and water; fluorescence at 460 nm.
T1 sequence (O49686 1-191): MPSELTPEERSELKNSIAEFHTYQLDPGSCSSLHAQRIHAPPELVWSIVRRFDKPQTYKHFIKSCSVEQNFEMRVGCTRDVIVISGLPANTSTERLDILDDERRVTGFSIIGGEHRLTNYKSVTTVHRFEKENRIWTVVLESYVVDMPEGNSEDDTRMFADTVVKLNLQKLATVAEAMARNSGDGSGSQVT
T1 sequence (P49597 1-434): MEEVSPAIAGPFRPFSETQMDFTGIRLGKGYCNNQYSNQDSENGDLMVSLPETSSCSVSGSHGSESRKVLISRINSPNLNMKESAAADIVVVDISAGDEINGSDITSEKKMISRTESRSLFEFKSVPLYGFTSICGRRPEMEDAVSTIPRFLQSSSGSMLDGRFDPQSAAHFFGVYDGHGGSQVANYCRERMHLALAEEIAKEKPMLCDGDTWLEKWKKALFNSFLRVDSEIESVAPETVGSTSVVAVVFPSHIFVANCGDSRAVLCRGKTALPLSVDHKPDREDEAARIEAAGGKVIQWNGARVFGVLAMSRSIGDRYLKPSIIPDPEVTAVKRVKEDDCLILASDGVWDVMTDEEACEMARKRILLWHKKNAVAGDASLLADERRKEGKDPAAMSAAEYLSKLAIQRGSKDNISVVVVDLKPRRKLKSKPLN
Assay type: biochemical
Design: dose or concentration left out as unconfirmed
Description: Effects of the phytohormone abscisic acid (ABA) on the behavior of plants under abiotic stress and the mechanism of action of ABA are described in the literature (cf. Abrams et al., WO97/23441, Park et al. Science, 2009, 324, 1068; Grill et al. Science, 2009, 324, 1064; Tanokura et al. Biophysics, 2011, 7, 123; Schroeder et al. Plant J. 2010, 61, 290). Therefore, it is possible with the aid of a suitable in vitro test system to derive a correlation between the action of ABA and the stress response of a plant under abiotic stress. In the event of water deficiency (drought stress), plants form the phytohormone abscisic acid (ABA). This binds, along with a co-regulator (Regulatory Component of ABA-Receptor=RCAR according to Grill et al. Science, 2009, 324, 1064 or PYR/PYL according to Cutler et al. Science, 2009, 324, 1068), to a phosphatase (e.g. ABI1, a type 2C protein phosphatase, also abbreviated to PP2C) and inhibits its activity. As a result, a “downstream” kinase (e.g. SnRK2) is no longer dephosphorylated. This kinase, which is thus active, via phosphorylation of transcription factors (e.g. AREB/ABF, cf. Yoshida et al., 2010, 61, 672), switches on a genetic protection program to increase drought stress tolerance. The assay described hereinafter utilizes the inhibition of the phosphatase ABI1 via the co-regulator RCAR11/PYR1 aus Arabidopsis thaliana. For the determination of activity, the dephosphorylation of 4-methylumbelliferyl phosphate (MUP) was measured at 460 nm. The in vitro assay was conducted in Greiner 384-well PS microplates F-well, using two controls: a) 0.5% dimethyl sulfoxide (DMSO) and b) 5 μM abscisic acid (ABA). The assay described here was generally conducted with substance concentrations of the appropriate chemical test substances in a concentration range of 0.1 μM to 100 μM in a solution of DMSO and water. The substance solution thus obtained, if necessary, was stirred with esterase from porcine liver (EC 3.1.1.1) at room temperature for 3 h and centrifuged at 4000 rpm for 30 min. A total volume of 45 μl was introduced into each cavity of the microplate, having the following composition: • 1) 5 μl of substance solution, i.e. a) DMSO 5% or b) abscisic acid solution or c) the corresponding example compound of the general formula (I) dissolved in 5% DMSO. • 2) 20 μl of enzyme buffer mix, composed of a) 40% by vol. of enzyme buffer (10 mL contain equal proportions by volume of 500 mM Tris-HCl pH 8, 500 mM NaCl, 3.33 mM MnCl2, 40 mM dithiothreitol (DTT)), b) 4% by vol. of ABI1 dilution (protein stock solution was diluted so as to give, after addition, a final concentration in the assay of 0.15 μg ABI1/well), c) 4% by vol. of RCAR11 dilution (enzyme stock was diluted so as to give, on addition of the dilution to the enzyme buffer mix, a final concentration in the assay of 0.30 μg enzyme/well), d) 5% by vol. of Tween20 (1%), e) 47% by vol. H2O bi-dist. • 3) 20 μl of substrate mix, composed of a) 10% by vol. of 500 mM Tris-HCl pH8, b) 10% by vol. of 500 mM NaCl, c) 10% by vol. of 3.33 mM MnCl2, d) 5% by vol. of 25 mM MUP, 5% by vol. of Tween20 (1%), 60% by vol. of H2O bi-dist.
Enzyme buffer mix and substrate mix were made up 5 minutes prior to the addition and warmed to a temperature of 35° C. On completion of pipetting of all the solutions and on completion of mixing, the plate was incubated at 35° C. for 20 minutes. Finally, a relative fluorescence measurement was made at 35° C. with a BMG Labtech “POLARstar Optima” microplate reader using a 340/10 nm excitation filter and a 460 nm emission filter. The efficacy of the compounds of the general formula (I) is reported in the table which follows using abscisic acid […] as comparative substance (No. 37) according to the following classification: ++++ (inhibition≧90%), +++ (90%>inhibition≧70%), ++ (70%>inhibition≧50%), + (50%>inhibition≧30%). […]

| Compound | ABI1 inhibition |
| --- | --- |
| O=C1CCc2cc(NS(=O)(=O)Cc3cccc(F)c3)ccc2N1CC1CCC1 [A21-159] | ++++ (inhibition≧90%) |
| O=C1CCc2cc(NS(=O)(=O)Cc3ccc(Cl)cc3)ccc2N1CC1CCC1 [A21-165] | ++++ (inhibition≧90%) |
| O=C1CCc2cc(NS(=O)(=O)Cc3ccc(C(F)(F)F)cc3)ccc2N1CC1CCC1 [A21-178] | +++ (90%>inhibition≧70%) |
| N#Cc1ccc(CS(=O)(=O)Nc2ccc3c(c2)CCC(=O)N3CC2CCC2)cc1 [A21-181, N-[1-(Cyclobutylmethyl)-2-oxo-1,2,3,4-tetrahydroquinolin-6-yl]-1-(4-cyanophenyl)methanesulfonamide] | ++++ (inhibition≧90%) |
| CCc1ccc(CS(=O)(=O)Nc2ccc3c(c2)CCC(=O)N3CC2CCC2)cc1 [A21-325] | ++++ (inhibition≧90%) |
| CC(C)(C)c1ccc(CS(=O)(=O)Nc2ccc3c(c2)CCC(=O)N3CC2CCC2)cc1 [A21-332] | ++++ (inhibition≧90%) |
| CCc1ccc(S(=O)(=O)Nc2ccc3c(c2)CCC(=O)N3CC2CCC2)cc1 [A21-601] | ++++ (inhibition≧90%) |
| Cc1ccc(CS(=O)(=O)Nc2ccc3c(c2)CCC(=O)N3CC2CCCC2)cc1 [A22-152] | +++ (90%>inhibition≧70%) |
| O=C1CCc2cc(NS(=O)(=O)Cc3ccc(Cl)cc3)ccc2N1CC1CCCC1 [A22-165] | +++ (90%>inhibition≧70%) |
| N#Cc1ccc(CS(=O)(=O)Nc2ccc3c(c2)CCC(=O)N3CC2CCCC2)cc1 [A22-181] | +++ (90%>inhibition≧70%) |
| O=C1CCc2c(cc(F)c(NS(=O)(=O)Cc3ccc(F)cc3)c2F)N1CC1CC1 [A29-158] | ++ (70%>inhibition≧50%) |
| Cc1ccc(CS(=O)(=O)Nc2ccc3c(c2)CCC(=O)N3CC2CC2(Cl)Cl)cc1 (centres unmarked) [A32-152] | ++ (70%>inhibition≧50%) |
| O=C1CCc2cc(NS(=O)(=O)Cc3ccc(C(F)(F)F)cc3)ccc2N1CC1CC1(Cl)Cl (centres unmarked) [A32-178, N-[1-(2′,2′-Dichlorocyclopropylmethyl)-2-oxo-1,2,3,4-tetrahydroquinolin-6-yl]-1-(4-trifluoromethylphenyl)methanesulfonamide] | ++ (70%>inhibition≧50%) |
| N#Cc1ccc(CS(=O)(=O)Nc2ccc3c(c2)CCC(=O)N3CC2CC2(Cl)Cl)cc1 (centres unmarked) [A32-181] | +++ (90%>inhibition≧70%) |
| COCCN1C(=O)CCc2cc(NS(=O)(=O)Cc3ccc(C)cc3)ccc21 [A38-152, N-[1-(Methoxyethyl)-2-oxo-1,2,3,4-tetrahydroquinolin-6-yl]-1-(4-methylphenyl)methanesulfonamide] | ++++ (inhibition≧90%) |
| COCCN1C(=O)CCc2cc(NS(=O)(=O)Cc3cccc(Cl)c3)ccc21 [A38-166] | +++ (90%>inhibition≧70%) |
| COCCN1C(=O)CCc2cc(NS(=O)(=O)Cc3ccc(C(F)(F)F)cc3)ccc21 [A38-178] | ++++ (inhibition≧90%) |
| CCOCCN1C(=O)CCc2cc(NS(=O)(=O)Cc3ccc(C)cc3)ccc21 [A39-152] | ++++ (inhibition≧90%) |
| CCOCCN1C(=O)CCc2cc(NS(=O)(=O)Cc3ccc(F)cc3)ccc21 [A39-158] | + (50%>inhibition≧30%) |
| CCOCCN1C(=O)CCc2cc(NS(=O)(=O)Cc3ccc(C#N)cc3)ccc21 [A39-181] | +++ (90%>inhibition≧70%) |
| CC(C#N)CN1C(=O)CCc2cc(NS(=O)(=O)Cc3ccc(Cl)cc3)ccc21 (centres unmarked) [A47-165] | ++++ (inhibition≧90%) |

| Compound | ABI1 inhibition |
| --- | --- |
| N#CCCCN1C(=O)CCc2cc(NS(=O)(=O)Cc3ccc(C#N)cc3)ccc21 [A48-181] | ++++ (inhibition≧90%) |
| COCN1C(=O)CCc2cc(NS(=O)(=O)Cc3ccc(Cl)cc3)ccc21 [A49-165] | ++++ (inhibition≧90%) |
| COC(=O)CN1C(=O)CCc2cc(NS(=O)(=O)Cc3ccccc3)ccc21 [A50-151] | ++ (70%>inhibition≧50%) |
| COC(=O)CN1C(=O)CCc2cc(NS(=O)(=O)Cc3cccc(C)c3)ccc21 [A50-153] | ++ (70%>inhibition≧50%) |
| COC(=O)CN1C(=O)CCc2cc(NS(=O)(=O)Cc3ccc(F)cc3)ccc21 [A50-158] | +++ (90%>inhibition≧70%) |
| COC(=O)CN1C(=O)CCc2cc(NS(=O)(=O)Cc3ccccc3F)ccc21 [A50-161] | +++ (90%>inhibition≧70%) |
| COC(=O)CN1C(=O)CCc2cc(NS(=O)(=O)Cc3ccc(Cl)cc3)ccc21 [A50-165] | ++++ (inhibition≧90%) |
| COC(=O)CN1C(=O)CCc2cc(NS(=O)(=O)Cc3cccc(Cl)c3)ccc21 [A50-166] | ++ (70%>inhibition≧50%) |
| COC(=O)CN1C(=O)CCc2cc(NS(=O)(=O)Cc3ccc(Br)cc3)ccc21 [A50-172] | ++++ (inhibition≧90%) |
| COC(=O)CN1C(=O)CCc2cc(NS(=O)(=O)Cc3ccc(C#N)cc3)ccc21 [A50-181] | +++ (90%>inhibition≧70%) |
| COC(=O)CN1C(=O)CCc2cc(NS(=O)(=O)CCc3ccc(Cl)cc3)ccc21 [A50-291] | ++ (70%>inhibition≧50%) |
| COC(=O)CCN1C(=O)CCc2cc(NS(=O)(=O)Cc3ccccc3)ccc21 [A51-151] | +++ (90%>inhibition≧70%) |
| COC(=O)CCN1C(=O)CCc2cc(NS(=O)(=O)Cc3ccc(C)cc3)ccc21 [A51-152] | ++++ (inhibition≧90%) |
| COC(=O)CCN1C(=O)CCc2cc(NS(=O)(=O)Cc3ccccc3F)ccc21 [A51-161] | +++ (90%>inhibition≧70%) |
| COC(=O)CCN1C(=O)CCc2cc(NS(=O)(=O)Cc3ccccc3Cl)ccc21 [A51-168] | ++++ (inhibition≧90%) |
| COC(=O)CCN1C(=O)CCc2cc(NS(=O)(=O)Cc3cccc(Br)c3)ccc21 [A51-173] | ++ (70%>inhibition≧50%) |
| COC(=O)CCN1C(=O)CCc2cc(NS(=O)(=O)Cc3ccc([N+](=O)[O-])cc3)ccc21 [A51-175] | +++ (90%>inhibition≧70%) |
| COC(=O)CCN1C(=O)CCc2cc(NS(=O)(=O)Cc3ccccc3[N+](=O)[O-])ccc21 [A51-177] | ++ (70%>inhibition≧50%) |
| COC(=O)CCN1C(=O)CCc2cc(NS(=O)(=O)Cc3cccc(C(F)(F)F)c3)ccc21 [A51-179] | ++ (70%>inhibition≧50%) |
| CC1(C)CC(=O)N(CC#N)c2ccc(NS(=O)(=O)Cc3ccc(Cl)cc3)cc21 [B16-165] | +++ (90%>inhibition≧70%) |

Reference: patent publication US20170027172A1, “USE OF SUBSTITUTE OXO TETRAHYDROQUINOLINE SULFONAMIDES OR SALTS THEREOF FOR RAISING STRESS TOLERANCE OF PLANTS” (BAYER CROPSCIENCE AKTIENGESELLSCHAFT, priority 2014, published 2017)
